The text below walks through data of paper PMC6017357, “In Vitro Inhibitory Effects of Synthetic Cannabinoid EAM-2201 on Cytochrome P450 and UDP-Glucuronosyltransferase Enzyme Activities in Human Liver Microsomes” (Molecules : A Journal of Synthetic Chemistry and Natural …, 2018).

The IC50 is the concentration at which inhibition is half-maximal. Low readings indicate greater potency, high ones weaker potency. One may read the kinact as the maximal first-order rate at which the target is inactivated.

For data set [1] the following is noted: human liver microsomes; cited from earlier work. For orientation: Microsomes from liver hold many membrane-bound enzymes, among them those of drug oxidation.
The target in a further data set is T1, CYP2C8 (Homo sapiens, UniProt P10632).
T1 sequence (P10632 1-490): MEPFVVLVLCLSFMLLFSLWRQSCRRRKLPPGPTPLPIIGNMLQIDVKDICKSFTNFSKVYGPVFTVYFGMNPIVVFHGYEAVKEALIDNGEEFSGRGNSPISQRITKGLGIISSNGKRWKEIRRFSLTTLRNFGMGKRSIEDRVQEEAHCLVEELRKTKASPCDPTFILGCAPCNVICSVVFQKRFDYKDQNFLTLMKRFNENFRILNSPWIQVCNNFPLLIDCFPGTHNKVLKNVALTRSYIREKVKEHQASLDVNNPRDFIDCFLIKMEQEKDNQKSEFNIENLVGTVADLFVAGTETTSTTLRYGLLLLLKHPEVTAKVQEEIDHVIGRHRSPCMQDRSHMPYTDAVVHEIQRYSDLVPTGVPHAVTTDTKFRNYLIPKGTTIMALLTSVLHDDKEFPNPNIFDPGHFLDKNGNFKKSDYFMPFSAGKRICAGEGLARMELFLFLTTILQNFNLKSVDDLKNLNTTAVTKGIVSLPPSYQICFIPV
Description: CYP2C8-catalyzed amodiaquine N-deethylation in human liver microsomes (IC50 and time-dependent inhibition). It is filed as in vitro ADME. Also noted: from tissue; host or cells: ultrapooled human liver microsomes. The protocol: (§1) The inhibitory potential (IC50 values) of EAM-2201 on CYP1A2, CYP2A6, CYP2C8, CYP2C9, CYP2C19, CYP2D6 and CYP3A4 were evaluated using ultrapooled human liver microsomes and a cocktail of seven CYP substrates followed by LC-tandem mass spectrometry (LC-MS/MS) as previously described. Each incubation mixture was prepared in a total volume of 100 µL as follows: pooled human liver microsomes (5.2 pmol CYP), 1.0 mM NADPH, 10 mM magnesium chloride, 50 mM potassium phosphate buffer (pH 7.4), various concentrations of EAM-2201 in DMSO (final concentrations of 0.1–50 µM, 0.5% DMSO) and a cocktail of seven CYP probe substrates in 50% acetonitrile (0.5% acetonitrile), including 50 µM phenacetin, 2.5 µM coumarin, 2.0 µM amodiaquine, 10 µM diclofenac, 100 µM [S]-mephenytoin, 5 µM bufuralol and 2.5 µM midazolam in 50% acetonitrile. After a 3-min preincubation at 37 °C, the reactions were initiated by adding NADPH and incubation proceeded for 15 min at 37 °C in a shaking water bath. The reactions were stopped by adding 100 µL of ice-cold methanol containing internal standards (^13C2,^15N-acetaminophen for acetaminophen and N-desethylamodiaquine; d9-1′-hydroxybufuralol for 4′-hydroxydiclofenac, 7-hydroxycoumarin, 4′-hydroxymephenytoin, 1′-hydroxybufuralol and 1′-hydroxy-midazolam). The incubation mixtures were centrifuged at 13,000× g for 4 min at 4 °C and 50 µL of each supernatant was diluted in 50 µL of water. Aliquots (5 µL) of the diluted supernatants were analyzed using LC-MS/MS. All assays were performed in triplicate and the mean values were used in calculations. […] Each reaction was initiated by adding the seven-CYP probe substrate cocktail described above.
(§2) The time-dependent inhibitory effects of EAM-2201 on CYP2C8, CYP2C9, CYP2C19 and CYP3A4 activities in ultrapooled human liver microsomes were evaluated using time- and concentration-dependent inhibition assays. Ultrapooled human liver microsomes (26.0 pmol CYP) were pre-incubated with various concentrations of EAM-2201 in DMSO (0.5% DMSO) in 50 mM potassium phosphate buffer (pH 7.4) in the presence of NADPH for predetermined time periods: 5–15 min for CYP2C8 activity, 5–20 min for CYP2C9 activity and 15–40 min for CYP2C19 and CYP3A4 activities. […] Aliquots (5 µL) of the diluted supernatants were analyzed using LC-MS/MS.
(§3) The metabolites formed from CYP substrates were simultaneously quantified using our previously described LC-MS/MS method. […]

Another data set has as its target CYP2C9 (Homo sapiens, UniProt P11712). Kind of data set: CYP2C9-catalyzed diclofenac 4′-hydroxylation in human liver microsomes (IC50 and time-dependent inhibition). More on the design: from tissue; host or cells: ultrapooled human liver microsomes. It is filed as in vitro ADME. As to the method:
as §1, §2, §3

Where [2] appears, read: up to 50 µM, without 30-min preincubation, human liver microsomes.

Chain of CYP2C9 (P11712 whole entry): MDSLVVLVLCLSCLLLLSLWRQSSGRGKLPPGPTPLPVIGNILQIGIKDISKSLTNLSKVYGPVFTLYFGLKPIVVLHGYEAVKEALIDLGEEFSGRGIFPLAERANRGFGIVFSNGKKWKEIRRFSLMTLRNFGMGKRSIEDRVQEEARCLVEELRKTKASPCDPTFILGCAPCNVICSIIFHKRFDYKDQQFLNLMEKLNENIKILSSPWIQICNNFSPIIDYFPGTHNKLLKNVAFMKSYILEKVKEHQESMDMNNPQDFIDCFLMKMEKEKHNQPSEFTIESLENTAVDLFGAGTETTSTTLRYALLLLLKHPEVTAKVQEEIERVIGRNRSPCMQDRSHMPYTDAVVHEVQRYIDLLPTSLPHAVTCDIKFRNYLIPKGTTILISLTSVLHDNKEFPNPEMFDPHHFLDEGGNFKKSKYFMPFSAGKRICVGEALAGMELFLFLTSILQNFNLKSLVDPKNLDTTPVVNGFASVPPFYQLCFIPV

Take `CCc1ccc(C(=O)c2cn(CCCCCF)c3ccccc23)c2ccccc12` [EAM-2201, (4-ethyl-1-naphthalenyl)[1-(5-fluoropentyl)-1H-indol-3-yl]-methanone]: the number of metabolites in data set [1] is on record as 37 metabolites. The half-maximal inhibitory concentration (IC50) worked out at 3 µM at CYP2C8 and 6.7 µM on CYP2C9. Besides, the “inactivation efficiency (kinact/Ki), CYP2C8” value on CYP2C8 (human liver microsomes) is 1953 M⁻¹ s⁻¹. Further, the kinact at CYP2C8 (human, ultrapooled human liver microsomes, pH 7.4, probe amodiaquine (2 µM), N-deethylation, read-out: kinact, time-dependent inhibition of CYP2C8 amodiaquine N-deethylase (converted)) is 0.00105 s⁻¹; on CYP2C9 (human, ultrapooled human liver microsomes, pH 7.4, probe diclofenac (10 µM), 4′-hydroxylation, read-out: kinact, time-dependent inhibition of CYP2C9 diclofenac 4′-hydroxylase (converted)) it was 0.00077 s⁻¹. The “inhibition of CYP2C8-catalyzed amodiaquine N-deethylation” value on CYP2C8 (setting [2]) is given as “negligibly inhibited”. Also, the “inactivation efficiency (kinact/Ki), CYP2C9” value at CYP2C9 (human liver microsomes) came to 257 M⁻¹ s⁻¹. Also, at CYP2C9 (setting [2]), the “inhibition of CYP2C9-catalyzed diclofenac 4′-hydroxylation” value is “negligibly inhibited”.
